Measured values reported in patent US11071731B2, “Allosteric modulators of the mu opioid receptor” (Chiromics, LLC, priority 2017, dated 2021).

What was measured:
mu opioid receptor (MOR) [1] = biological target: T1, mu opioid receptor (MOR) (Homo sapiens, UniProt P35372); test: PathHunter β-arrestin recruitment assay, PAM mode with EC20 endomorphin-1; type: cell-based; settings: for β-arr Max. Resp.: maximal response for β-arrestin recruitment; for EC50: β-arrestin recruitment, read-out: β-arr. EC50
T1 sequence (P35372 whole entry): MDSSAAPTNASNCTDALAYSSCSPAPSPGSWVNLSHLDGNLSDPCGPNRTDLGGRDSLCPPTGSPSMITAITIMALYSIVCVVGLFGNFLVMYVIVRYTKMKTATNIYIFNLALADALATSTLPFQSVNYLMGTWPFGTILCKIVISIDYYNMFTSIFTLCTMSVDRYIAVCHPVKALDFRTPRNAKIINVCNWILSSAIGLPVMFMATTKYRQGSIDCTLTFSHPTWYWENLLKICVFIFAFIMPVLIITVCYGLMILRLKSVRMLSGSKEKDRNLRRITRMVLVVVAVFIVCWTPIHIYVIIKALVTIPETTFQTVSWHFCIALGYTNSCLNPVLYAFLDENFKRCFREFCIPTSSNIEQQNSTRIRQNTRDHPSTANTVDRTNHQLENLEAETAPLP
Description: The effects of MOR PAMs and MOR SAMs on receptor activity were assayed using the PathHunter enzyme complementation assay technology (DiscoveRx, CA). A description of the technology employed is as follows.
Beta-Arrestin Pathway: The PathHunter β-arrestin assay monitors the activation of a GPCR in a homogenous, non-imaging assay format using a technology developed by DiscoveRx called Enzyme Fragment Complementation (EFC) with beta-galactosidase (β-Gal) as the functional reporter. […] EA is fused to β-Arrestin and ED is fused to the GPCR of interest. When the GPCR is activated and β-arrestin is recruited to the receptor, ED and EA complementation occurs, restoring β-gal activity, which is measured using chemiluminescent PathHunter Detection Reagents.
In this manner an EC50 for each test compound, and percent maximal response for each test compound, were determined for both the β-arrestin and cAMP pathways. Though the pharmacological effects of a given signal bias can be hypothesized (Raehal et al. (2011) Pharmacol. Rev. 63:1001-1019), it is not possible to know with certainty which bias ratio will be most advantageous in a clinical setting. […] Kenakin 2015a, supra. The information associated with the compounds detailed herein is the first large data set available for the prediction of ligand bias for an MOR PAM.

mu opioid receptor (MOR) [2] = biological target: T1, mu opioid receptor (MOR); test: Hit Hunter cAMP signaling assay (adenylyl cyclase inhibition), PAM mode with EC20 endomorphin-1; type: cell-based; settings: for cAMP Max. Resp.: maximal response for adenylyl cyclase inhibition
[3] = adenylyl cyclase inhibition, read-out: cAMP EC50
[4] = cAMP EC50, adenylyl cyclase inhibition

| SMILES | β-arr Max. Resp. (mu opioid receptor (MOR) [1]) | EC50 (mu opioid receptor (MOR) [1]) [nM] | EC50 (mu opioid receptor (MOR) [2]; [3]) [nM] | cAMP Max. Resp. (mu opioid receptor (MOR) [2]) | EC50 (mu opioid receptor (MOR) [2]; [4]) [nM] |
| --- | --- | --- | --- | --- | --- |
| O=S(=O)(c1ccc(Cl)cc1)N1CCCCC1c1cc(F)cc(C(F)(F)F)c1 (racemic) [compound 50] | F (F represents a maximal response of > 60%) | > 2100 | 700 to 2100 | D (D represents a maximal response of < 40%) |  |
| Oc1nccc(N2CCCCC2c2cccc(C(F)(F)F)c2)n1 (centres unmarked) [compound 401] | D (D represents a maximal response of < 40%) | < 700 |  | D (D represents a maximal response of < 40%) | < 700 |
| Cc1nccc(N2CCCCC2c2cncc(Cl)n2)n1 (centres unmarked) [compound 396] | D (D represents a maximal response of < 40%) | < 700 |  | D (D represents a maximal response of < 40%) | < 700 |
| Fc1cnc(Cl)nc1N1CCOCC1c1cccc(C(F)(F)F)n1 (racemic) [Compound 186] | E (E represents a maximal response of 40-60%) | > 2100 | > 2100 | D (D represents a maximal response of < 40%) |  |
| COc1ccc(C2CCCCN2S(=O)(=O)c2ccc(Cl)cc2)cc1C (racemic) [compound 68] | F (F represents a maximal response of > 60%) | > 2100 | 700 to 2100 | E (E represents a maximal response of 40-60%) |  |
| O=S(=O)(c1ccc(Cl)cc1F)N1CCCCC1c1cccc(C(F)(F)F)c1 (centres unmarked) [Compound 25] | F (F represents a maximal response of > 60%) | > 2100 | > 2100 | D (D represents a maximal response of < 40%) |  |
| Fc1cnc(N2CCOCC2)nc1N1CCCCC1c1cccc(C(F)(F)F)c1 (centres unmarked) [compound 255] | D (D represents a maximal response of < 40%) | > 2100 |  | F (F represents a maximal response of > 60%) | > 2100 |
| Cc1nc(C2CCCCN2c2nc(Cl)ncc2F)no1 (centres unmarked) [compound 409] | D (D represents a maximal response of < 40%) | < 700 |  | D (D represents a maximal response of < 40%) | < 700 |
| O=S(=O)(c1ccc(Cl)cc1)N1CCCCC1c1ccc(F)cn1 (racemic) [compound 54] | F (F represents a maximal response of > 60%) | > 2100 | > 2100 | E (E represents a maximal response of 40-60%) |  |
| Fc1cnc(Cl)nc1N1CCCCC1c1cc(C(F)(F)F)ccn1 (centres unmarked) [compound 278] | F (F represents a maximal response of > 60%) | > 2100 |  | F (F represents a maximal response of > 60%) | 700 to 2100 |
| Fc1cnc(Cl)nc1N1CCCCC1c1cccc(C(F)(F)F)c1F (centres unmarked) [compound 355] | D (D represents a maximal response of < 40%) | < 700 |  | D (D represents a maximal response of < 40%) | < 700 |
| Fc1cnc(Cl)nc1N1CCCCC1c1ccc(Br)c(C(F)(F)F)c1 (centres unmarked) [compound 287] | F (F represents a maximal response of > 60%) | 700 to 2100 |  | D (D represents a maximal response of < 40%) | < 700 |
| Cc1cc(C2CCCCN2c2nc(Cl)ncc2F)ccc1F (centres unmarked) [compound 130] | F (F represents a maximal response of > 60%) | < 700 |  | E (E represents a maximal response of 40-60%) | 700 to 2100 |
| Fc1ccc(Cl)cc1C1CCCCN1c1ccnc(Cl)n1 (centres unmarked) [compound 406] | D (D represents a maximal response of < 40%) | < 700 |  | D (D represents a maximal response of < 40%) | < 700 |
| Cc1cccc(S(=O)(=O)N2CCCCC2c2cccc(C(F)(F)F)c2)c1 (centres unmarked) [Compound 27] | F (F represents a maximal response of > 60%) | > 2100 | > 2100 | E (E represents a maximal response of 40-60%) |  |
| N#Cc1cc(C2CCCCN2S(=O)(=O)c2ccc(Cl)cc2)ccn1 (racemic) [compound 80] | E (E represents a maximal response of 40-60%) | > 2100 | > 2100 | D (D represents a maximal response of < 40%) |  |
| COc1ncc(N2CCCCC2c2cccc(C(F)(F)F)c2)c(F)n1 (centres unmarked) [compound 295] | D (D represents a maximal response of < 40%) | > 2100 | > 2100 | D (D represents a maximal response of < 40%) |  |
